Experimental data from patent publication US12611438B2, “Antiviral composition comprising a nucleolin-binding peptide” (ANYGEN CO., LTD., priority 2021, dated 2026).
Where two headings read alike, the source gives them in different places.

Experiments:
[1] = system: SARS-COV-2; conditions: 24 h
[2] = MTT cytotoxicity assay, Vero cells; conditions: African green monkey
[3] = in vitro; conditions: African green monkey
[4] = in vitro; format: cell-based
Experimental: In order to determine the half maximal cytotoxic concentration (CC50) of AGM-330, confluent A549, MDCK, Vero E6, MA104, MARC-145, and LLC-PK cells grown in 96-well plates were treated with dilutions of NCL-targeting peptide ligands (AGM-330d-mCPP, AGM-330t-mCPP) prepared from a low concentration to […], followed by incubation for 24 hours. After removing each culture medium, 200 μL of a 3-(4,5-dimethylthiazol-2-yl)-2,5-diphenyl tetrazolium bromide (MTT) solution was added thereto, followed by incubation in a 5% CO2 incubator at 36° C. for 4 hours. Then, 150 μL of a DMSO solution was added to each well and then incubated at 20° C. Then, the optical density (OD) was measured at a wavelength of 570 nm with an enzyme-linked immunosorbent assay (ELISA) reader (Table 6).

[5] = system: SARS-COV-2; conditions: for Lung, Alveolar wall thickening: Mild, incidence / Lung, Alveolar wall thickening: Minimal, incidence / Lung, Alveolar wall thickening: Moderate, incidence / Lung, Alveolar wall thickening: Normal, incidence / Lung, Alveolar wall thickening: Severe, incidence / Lung, Hemorrhage: Mild, incidence / Lung, Hemorrhage: Minimal, incidence / Lung, Hemorrhage: Moderate, incidence / Lung, Hemorrhage: Normal, incidence / Lung, Hemorrhage: Severe, incidence / Lung, Hyaline membrane: Mild, incidence / Lung, Hyaline membrane: Minimal, incidence / Lung, Hyaline membrane: Moderate, incidence / Lung, Hyaline membrane: Normal, incidence / Lung, Hyaline membrane: Severe, incidence / Lung, Inflammatory cell, intestinal: Mild, incidence / Lung, Inflammatory cell, intestinal: Minimal, incidence / Lung, Inflammatory cell, intestinal: Moderate, incidence / Lung, Inflammatory cell, intestinal: Normal, incidence / Lung, Inflammatory cell, intestinal: Severe, incidence / Lung, Neutrophilic/lymphocytic cell, alveolar: Mild, incidence / Lung, Neutrophilic/lymphocytic cell, alveolar: Minimal, incidence / Lung, Neutrophilic/lymphocytic cell, alveolar: Moderate, incidence / Lung, Neutrophilic/lymphocytic cell, alveolar: Normal, incidence / Lung, Proteinaceous debris: Mild, incidence / Lung, Proteinaceous debris: Minimal, incidence / Lung, Proteinaceous debris: Moderate, incidence / Lung, Proteinaceous debris: Normal, incidence / Lung, Proteinaceous debris: Severe, incidence: 5 animals
Experimental: Syrian hamsters (Female, 11 weeks, Raon Bio Co., Ltd.) were infected with SARS-COV-2 (2×10^5 pfu/mL) through intranasal irrigation.
Body weight was measured on the day of infection, the second day after infection, and the fourth day after infection.
Autopsy was measured on the fourth day after infection.

[6] = system: A549, MDCK, Vero E6, MA104, MARC-145, and LLC-PK cells; conditions: 10 μM
[7] = system: influenza A virus; format: in vivo, C57BL/6 mice; conditions: 0.04, 0.2, and 1.00 mg/kg i.p. once a day for 5 days, observed 16 days

## CC[C@H](C)[C@H](NC(=O)[C@H](CCCNC(=N)N)NC(=O)[C@H](CC(C)C)NC(=O)[C@@H](NC(=O)[C@H](CCCNC(=N)N)NC(=O)[C@H](CCSC)NC(=O)[C@@H](NC(=O)[C@@H](N)CCCNC(=N)N)[C@@H](C)CC)[C@@H](C)CC)C(=O)N[C@@H](CC(C)C)C(=O)N[C@@H](CCCCN)C(=O)N[C@@H](CC(C)C)C(=O)N[C@@H](C)C(=O)N[C@@H](CCCNC(=N)N)C(=O)NCCCC[C@H](NC(=O)[C@H](CCCNC(=N)N)NC(=O)[C@H](C)NC(=O)[C@H](CC(C)C)NC(=O)[C@H](CCCCN)NC(=O)[C@H](CC(C)C)NC(=O)[C@@H](NC(=O)[C@H](CCCNC(=N)N)NC(=O)[C@H](CC(C)C)NC(=O)[C@@H](NC(=O)[C@H](CCCNC(=N)N)NC(=O)[C@H](CCSC)NC(=O)[C@@H](NC(=O)[C@@H](N)CCCNC(=N)N)[C@@H](C)CC)[C@@H](C)CC)[C@@H](C)CC)C(=O)N[C@@H](CSSC[C@H](NC(=O)[C@H](CCCCNC(=O)CCOCCOCCOCCOCCOCCOCCNC(=O)[C@H](CCCCN)NC(=O)[C@H](CC(C)C)NC(=O)[C@H](Cc1ccc(O)cc1)NC(=O)[C@@H](NC(=O)[C@H](CCSC)NC(=O)[C@H](C)NC(=O)CNC(=O)[C@H](Cc1c[nH]cn1)NC(=O)[C@@H](N)CCCNC(=N)N)C(C)C)NC(=O)CCOCCOCCOCCOCCOCCOCCNC(=O)[C@H](CCCCN)NC(=O)[C@H](CC(C)C)NC(=O)[C@H](Cc1ccc(O)cc1)NC(=O)[C@@H](NC(=O)[C@H](CCSC)NC(=O)[C@H](C)NC(=O)CNC(=O)[C@H](Cc1c[nH]cn1)NC(=O)[C@@H](N)CCCNC(=N)N)C(C)C)C(=O)O)C(=O)O [AGM-330d-dCPP]
[1]
  IC50: 5.2 µM
[2]
  CC50 at 24 h: 7.73 µM

## CC[C@H](C)[C@H](NC(=O)[C@H](CCCNC(=N)N)NC(=O)CCN1C(=O)CC(SC[C@H](NC(=O)[C@H](CCCCNC(=O)CCOCCOCCOCCOCCOCCOCCNC(=O)[C@H](CCCCN)NC(=O)[C@H](CC(C)C)NC(=O)[C@H](Cc2ccc(O)cc2)NC(=O)[C@@H](NC(=O)[C@H](CCSC)NC(=O)[C@H](C)NC(=O)CNC(=O)[C@H](Cc2c[nH]cn2)NC(=O)[C@@H](N)CCCNC(=N)N)C(C)C)NC(=O)CCOCCOCCOCCOCCOCCOCCNC(=O)[C@H](CCCCN)NC(=O)[C@H](CC(C)C)NC(=O)[C@H](Cc2ccc(O)cc2)NC(=O)[C@@H](NC(=O)[C@H](CCSC)NC(=O)[C@H](C)NC(=O)CNC(=O)[C@H](Cc2c[nH]cn2)NC(=O)[C@@H](N)CCCNC(=N)N)C(C)C)C(=O)O)C1=O)C(=O)N[C@@H](CCSC)C(=O)N[C@@H](CCCNC(=N)N)C(=O)N[C@H](C(=O)N[C@@H](CC(C)C)C(=O)N[C@@H](CCCNC(=N)N)C(=O)N[C@H](C(=O)N[C@@H](CC(C)C)C(=O)N[C@@H](CCCCN)C(=O)N[C@@H](CC(C)C)C(=O)N[C@@H](C)C(=O)N[C@@H](CCCNC(=N)N)C(=O)O)[C@@H](C)CC)[C@@H](C)CC (stereo partly drawn) [AGM-330d-mCPP]
[3]
  CC50 at 24 h: > 20 µM
[4]; African green monkey, MA-104, MTT
  CC50 at 24 h: 99.9 µM
[4]; African green monkey, MARC-145, MTT
  CC50 at 24 h: 98 µM
[4]; African green monkey, Vero E6, MTT
  CC50 at 24 h: 108 µM
[4]; human, A549, MTT
  CC50 at 24 h: 102 µM
[4]; human, HRT-18, MTT
  CC50 at 24 h: 89.5 µM
[4]; pig, LLC-PK, MTT
  CC50 at 24 h: 101 µM
[5]; 6 mg/kg
  lung histopathological lesions versus virus control group: significantly reduced
[5]; 6 mg/kg, autopsy fourth day after infection
  macroscopic lung changes versus virus control group: significantly alleviated
[5]; 0.2, 2, 6 mg/kg i.p., eight times for four days, observed 5 days after infection
  mortality: no dead animals occurred
[5]; 0.2, 2, 6 mg/kg i.p., day of infection, day 2, day 4
  body weight change versus virus control group: No significant weight change
[5]; AGM-1: 0.2 mg/kg
  Lung, Alveolar wall thickening: Mild, incidence: 3
  Lung, Alveolar wall thickening: Minimal, incidence: 0
  Lung, Alveolar wall thickening: Moderate, incidence: 2
  Lung, Alveolar wall thickening: Normal, incidence: 0
  Lung, Alveolar wall thickening: Severe, incidence: 0
  Lung, Hemorrhage: Mild, incidence: 2
  Lung, Hemorrhage: Minimal, incidence: 3
  Lung, Hemorrhage: Moderate, incidence: 0
  Lung, Hemorrhage: Normal, incidence: 0
  Lung, Hemorrhage: Severe, incidence: 0
  Lung, Hyaline membrane: Mild, incidence: 3
  Lung, Hyaline membrane: Minimal, incidence: 0
  Lung, Hyaline membrane: Moderate, incidence: 2
  Lung, Hyaline membrane: Normal, incidence: 0
  Lung, Hyaline membrane: Severe, incidence: 0
  Lung, Inflammatory cell, intestinal: Mild, incidence: 2
  Lung, Inflammatory cell, intestinal: Minimal, incidence: 0
  Lung, Inflammatory cell, intestinal: Moderate, incidence: 3
  Lung, Inflammatory cell, intestinal: Normal, incidence: 0
  Lung, Inflammatory cell, intestinal: Severe, incidence: 0
  Lung, Neutrophilic/lymphocytic cell, alveolar: Mild, incidence: 3
  Lung, Neutrophilic/lymphocytic cell, alveolar: Minimal, incidence: 2
  Lung, Neutrophilic/lymphocytic cell, alveolar: Moderate, incidence: 0
  Lung, Neutrophilic/lymphocytic cell, alveolar: Normal, incidence: 0
  Lung, Proteinaceous debris: Mild, incidence: 2
  Lung, Proteinaceous debris: Minimal, incidence: 3
  Lung, Proteinaceous debris: Moderate, incidence: 0
  Lung, Proteinaceous debris: Normal, incidence: 0
  Lung, Proteinaceous debris: Severe, incidence: 0
[5]; AGM-2: 2 mg/kg
  Lung, Alveolar wall thickening: Mild, incidence: 3
  Lung, Alveolar wall thickening: Minimal, incidence: 0
  Lung, Alveolar wall thickening: Moderate, incidence: 2
  Lung, Alveolar wall thickening: Normal, incidence: 0
  Lung, Alveolar wall thickening: Severe, incidence: 0
  Lung, Hemorrhage: Mild, incidence: 3
  Lung, Hemorrhage: Minimal, incidence: 2
  Lung, Hemorrhage: Moderate, incidence: 0
  Lung, Hemorrhage: Normal, incidence: 0
  Lung, Hemorrhage: Severe, incidence: 0
  Lung, Hyaline membrane: Mild, incidence: 3
  Lung, Hyaline membrane: Minimal, incidence: 0
  Lung, Hyaline membrane: Moderate, incidence: 2
  Lung, Hyaline membrane: Normal, incidence: 0
  Lung, Hyaline membrane: Severe, incidence: 0
  Lung, Inflammatory cell, intestinal: Mild, incidence: 1
  Lung, Inflammatory cell, intestinal: Minimal, incidence: 0
  Lung, Inflammatory cell, intestinal: Moderate, incidence: 3
  Lung, Inflammatory cell, intestinal: Normal, incidence: 0
  Lung, Inflammatory cell, intestinal: Severe, incidence: 1
  Lung, Neutrophilic/lymphocytic cell, alveolar: Mild, incidence: 3
  Lung, Neutrophilic/lymphocytic cell, alveolar: Minimal, incidence: 2
  Lung, Neutrophilic/lymphocytic cell, alveolar: Moderate, incidence: 0
  Lung, Neutrophilic/lymphocytic cell, alveolar: Normal, incidence: 0
  Lung, Proteinaceous debris: Mild, incidence: 2
  Lung, Proteinaceous debris: Minimal, incidence: 3
  Lung, Proteinaceous debris: Moderate, incidence: 0
  Lung, Proteinaceous debris: Normal, incidence: 0
  Lung, Proteinaceous debris: Severe, incidence: 0
[5]; AGM-3: 6 mg/kg
  Lung, Alveolar wall thickening: Mild, incidence: 3
  Lung, Alveolar wall thickening: Minimal, incidence: 2
  Lung, Alveolar wall thickening: Moderate, incidence: 0
  Lung, Alveolar wall thickening: Normal, incidence: 0
  Lung, Alveolar wall thickening: Severe, incidence: 0
  Lung, Hemorrhage: Mild, incidence: 0
  Lung, Hemorrhage: Minimal, incidence: 5
  Lung, Hemorrhage: Moderate, incidence: 0
  Lung, Hemorrhage: Normal, incidence: 0
  Lung, Hemorrhage: Severe, incidence: 0
  Lung, Hyaline membrane: Mild, incidence: 1
  Lung, Hyaline membrane: Minimal, incidence: 4
  Lung, Hyaline membrane: Moderate, incidence: 0
  Lung, Hyaline membrane: Normal, incidence: 0
  Lung, Hyaline membrane: Severe, incidence: 0
  Lung, Inflammatory cell, intestinal: Mild, incidence: 3
  Lung, Inflammatory cell, intestinal: Minimal, incidence: 2
  Lung, Inflammatory cell, intestinal: Moderate, incidence: 0
  Lung, Inflammatory cell, intestinal: Normal, incidence: 0
  Lung, Inflammatory cell, intestinal: Severe, incidence: 0
  Lung, Neutrophilic/lymphocytic cell, alveolar: Mild, incidence: 0
  Lung, Neutrophilic/lymphocytic cell, alveolar: Minimal, incidence: 5
  Lung, Neutrophilic/lymphocytic cell, alveolar: Moderate, incidence: 0
  Lung, Neutrophilic/lymphocytic cell, alveolar: Normal, incidence: 0
  Lung, Proteinaceous debris: Mild, incidence: 1
  Lung, Proteinaceous debris: Minimal, incidence: 4
  Lung, Proteinaceous debris: Moderate, incidence: 0
  Lung, Proteinaceous debris: Normal, incidence: 0
  Lung, Proteinaceous debris: Severe, incidence: 0
[6]
  cytotoxicity at high concentration: did not exhibit significant cytotoxicity
[7]
  survival rate: significantly improved survival rate
